Consider 1 substance from US12467035B2, “Method of differentiating mesenchymal stem cells into cardiomyocytes” (CHONNAM NATIONAL UNIVERSITY HOSPITAL, priority 2016, dated 2025).

The test system of assay [1] is human bone marrow-derived mesenchymal stem cells. Nature of the assay: Cell viability of mesenchymal stem cells under glucose deprivation (microscopy). The assay is classed as cell-based. The note with it: glucose-free medium, 3 μM apicidin (12 mM lactic acid in AC/Lac12). The procedure: To confirm the status changes of mesenchymal stem cells in glucose deprivation conditions, an existing culture medium was replaced with a glucose-free medium, and then cells were observed after a certain period of time. At this time, cells treated with glucose or lactic acid (the case of cells incubated in a glucose-free medium, the case of cells incubated in a glucose-free medium containing lactic acid, the case of cells incubated in a glucose-free medium containing apicidin, or the case of cells incubated in a glucose-free medium containing lactic acid and apicidin) were observed, and the results are shown in FIG. 1.
First, mesenchymal stem cells were cultured in a 6-well plate filled with high glucose DMEM (4 mM L-glutamine, 4500 mg/L glucose, sodium pyruvate, 10% FBS, 100 U/ml penicillin, 100 μg/ml streptomycin) for one day. After culture, the high glucose DMEM was removed, the mesenchymal stem cells were washed twice with a sterile phosphate-saline buffer solution, and a glucose-free medium was added to the mesenchymal stem cells. At this time, the case of cells incubated in a glucose-free medium, the case of cells incubated in a glucose-free medium containing 3 μM apicidin, and the case of cells incubated in a glucose-free medium containing 3 μM apicidin and 12 mM lactic acid are denoted as Veh, AC, and AC/Lac12, respectively. At 4, 7, 20, and 27 hours after incubation, the morphology of the cells was observed under a microscope and images were obtained.
To evaluate the effect of a culture medium on differentiation of mesenchymal stem cells into cardiomyocytes, as described in Example 1-2, mesenchymal stem cells were incubated in a glucose-free medium, in a glucose-free medium containing apicidin, or a glucose-free medium containing apicidin and lactic acid, and cell viability was determined.

For assay [2], the system named is mesenchymal stem cells. Description: Immunocytochemistry of cardiomyocyte-specific marker proteins (GATA4, cTnI). It counts as cell-based, human. The note with it: glucose deprivation, 4 hours, immunofluorescent staining. The method, then:
To confirm the expression of cardiomyocyte-specific marker proteins, immunocytochemistry was performed. First, mesenchymal stem cells were inoculated into a 12-well plate filled with a high glucose DMEM medium and cultured for 1 day. Then, the mesenchymal stem cells were incubated into a glucose-free medium (Veh), a glucose-free medium containing apicidin (AC), or a glucose-free medium containing apicidin and lactic acid (AC/Lac) for 4 hours. After incubation, the cell culture medium was removed from each sample, the mesenchymal stem cells were washed once with PBS, and subsequently the cells were fixed with 3.7% formaldehyde for 15 minutes, followed by treatment with 0.1% Triton X-100 for cell permeabilization. Normal goat serum was added and incubated for 1 hour to reduce background noise. Primary antibodies such as anti-GATA4 antibodies, anti-cTnI antibodies or anti-alpha-sarcomeric actin (a-SA) antibodies were added to the samples, followed by incubation at 4° C. overnight. Then, secondary antibodies labeled with a fluorescent dye (Alexa 488 or Alexa 594) were added, followed by incubation for 1 hour. Nuclei were stained with 4′,6-diamidino-2-phenylindole (DAPI), a fluorescent dye. The samples were mounted on slide glass for observation using a fluorescence microscope. […]

The test system of assay [3] is mesenchymal stem cells. Nature of the assay: qRT-PCR of cardiomyocyte-specific marker genes (GATA4, Nkx2.5, cTnI). Conditions: glucose deprivation. It counts as cell-based, human. The method, then: To determine the degree of differentiation of mesenchymal stem cells into cardiomyocytes by addition of apicidin and lactic acid under glucose deprivation conditions, the expression levels of cardiomyocyte-specific genes were quantitatively analyzed in the cells. More specifically, as in the method of Example 1-2, mesenchymal stem cells were incubated in each of the media for 4 or 20 hours. After incubation, the medium was removed from each sample, followed by washing once with PBS. Then, the mesenchymal stem cells were treated with TRIzol and incubated at room temperature for 10 minutes for cell lysis, and then chloroform was added thereto, followed by centrifugation. A supernatant obtained as a result of centrifugation was recovered, and total RNA was extracted. cDNA was synthesized from the total RNA using a reverse transcriptase (MMLV). Real-time PCR was performed using the synthesized cDNA as a template using a QuantiTect SYBR Green PCR kit to determine the expression levels of cardiomyocyte-specific marker genes (GATA4, Nkx2.5, and cTnI).
Changes in cardiomyocyte-specific gene expression by addition of apicidin or apicidin and lactic acid under glucose deprivation conditions were quantified by RT-PCR according to the method of Example 1-3.
For orientation: Quantitative PCR measures a nucleic acid by following its amplification.

With apicidin, the results for the cell death result in assay [1] (7 hours), in assay [1] (20 hours) and in assay [1] (27 hours) were “cell death was not observed”, “partial cell death was observed” and “cell death was significantly observed”, respectively. The “expression of GATA4 and cTnI, cardiomyocyte-specific proteins” value in the assay with mesenchymal stem cells [2] was “increase in the expression”. In addition, the “expression levels of the marker genes (GATA4, Nkx2.5, cTnI)” value in the assay on mesenchymal stem cells [3] (20 hours after the treatment) is “remarkably increased”. Moreover, the “intracellular gene expression of three cardiomyocyte-specific markers (GATA4, Nkx2.5, and cTnI)” value with mesenchymal stem cells [3] (incubation 4 or 20 hours) is reported as “significantly increased”.
